Assay results from patent US8937062B2, “Compositions and methods for treating, reducing, ameliorating, or preventing infections caused by antibacterial drug-resistant bacteria” (Bausch & Lomb Incorporated, priority 2007, dated 2015).
Converted amounts (≈) assume the structure as drawn. Like-named read-outs stand apart in the source and are kept apart here.

How the values were obtained:
[1] = tested on: Methicillin-Resistant S. aureus Isolates; experiment: In vitro anti-bacterial activity, fourth test, Table 5; format: cell-based, Staphylococcus aureus; conditions: Staphylococcus aureus, read-out: MIC90
Experimental: In a fourth test, the anti-bacterial activity of the compound having Formula IV was tested against some methicillin-resistant S. aureus bacteria strains and compared to the anti-bacterial activity of three commercially available antibiotics: nadifloxacin (“NDFX”), ofloxacin (“OFLX”), and sparfloxacin (“SPFX”).

[2] = tested on: Gentamicin-resistant Staphylococcus aureus; experiment: In vitro anti-bacterial activity, resistant clinical isolates, fifth test, Table 6; format: cell-based; conditions: read-out: MIC90
Source text: (§1) As disclosed above, most of these bacteria strains are also relevant to infections of the ear and upper respiratory tract.

[3] = tested on: Gentamicin-resistant Pseudomonas aeruginosa; experiment: as above; format: cell-based; conditions: read-out: MIC90
Source text: as §1

[4] = tested on: Ofloxacin-resistant Staphylococcus aureus; experiment: as above; format: cell-based; conditions: read-out: MIC90
Source text: as §1

[5] = tested on: Penicillin-resistant Streptococcus pneumoniae; experiment: as above; format: cell-based; conditions: read-out: MIC90
Source text: as §1

[6] = tested on: Ofloxacin-resistant Enterobacteriaceae; experiment: organism not typed; format: cell-based
Source text: as §1

[7] = tested on: OFLX-resistant Enterobacteriaceae; experiment: MIC90, agar plate dilution method (NCCLS), Table 2; format: cell-based
Experimental: (§2) The MIC90 values for this test were determined by the agar plate dilution method according to the National Committee for Clinical Laboratory Standards (“NCCLS”).

[8] = tested on: APC-resistant Haemophilus influenza.; experiment: MIC90, agar plate dilution method (NCCLS), Table 2; format: cell-based; conditions: for MIC90 Range: APC-resistant Haemophilus influenza., 10 isolates; for MIC90: Haemophilus
Experimental: as §2

OFLX-resistant S. aureus = experiment: MIC90, agar plate dilution method (NCCLS), Table 2; format: cell-based; conditions: 10 isolates; for MIC90: Staphylococcus aureus
Experimental: as §2

[9] = tested on: GM-resistant P. aeruginosa; experiment: MIC90, agar plate dilution method (NCCLS), Table 2; format: cell-based; conditions: 10 isolates; for MIC90: Pseudomonas aeruginosa
Experimental: as §2

GM-resistant S. aureus = experiment: MIC90, agar plate dilution method (NCCLS), Table 2; format: cell-based; conditions: 10 isolates; for MIC90: Staphylococcus aureus
Experimental: as §2

[10] = tested on: PCG-resistant S. pneumoniae; experiment: MIC90, agar plate dilution method (NCCLS), Table 2; format: cell-based; conditions: 10 isolates; for MIC90: Streptococcus pneumoniae
Experimental: as §2

[11] = tested on: methicillin-resistant S. aureus; experiment: MIC90, Japanese Society of Chemotherapy guidelines (1993), Table 3; format: cell-based; conditions: Staphylococcus aureus, read-out: MIC90
Experimental: (§3) In a second test, compounds having Formulae IV and V, their racemic mixture, and OFLX were tested in vitro against S. aureus strains that are resistant to methicillin or penicillin. The test was conducted according to the guidelines of the Japanese Society of Chemotherapy (1993).

[12] = tested on: penicillin-resistant S. aureus; experiment: as above; format: cell-based; conditions: Staphylococcus aureus, read-out: MIC90
Experimental: as §3

[13] = ATCC33591, Staphylococcus aureus (ATCC 33591)
[14] = ATCC33592, Staphylococcus aureus (ATCC 33592)
[15] = ATCC33593, Staphylococcus aureus (ATCC 33593)
[16] = Staphylococcus aureus (No. 395)
[17] = Staphylococcus aureus (No. 415)
[18] = Staphylococcus aureus (No. 419)
[19] = Staphylococcus aureus (No. 420)
[20] = Staphylococcus aureus (No. 421)

| MIC90 [1, 13] [µg/mL] | MIC90 [1, 14] [µg/mL] | MIC90 [1, 15] [µg/mL] | MIC90 [1, 16] [µg/mL] | MIC90 [1, 17] [µg/mL] | MIC90 [1, 18] [µg/mL] | MIC90 [1, 19] [µg/mL] | MIC90 [1, 20] [µg/mL] | Compound | MIC90 ([7]; read-out: MIC90 Geometric Mean) [µg/mL] | MIC90 ([7]; read-out: MIC90 Value) [µg/mL] | MIC90 Range [8] | MIC90 ([8]; read-out: MIC90 Geometric Mean) [µg/mL] | MIC90 ([8]; read-out: MIC90 Value) [µg/mL] | MIC90 (OFLX-resistant S. aureus; read-out: MIC90 Geometric Mean) [µg/mL] | MIC90 (OFLX-resistant S. aureus; read-out: MIC90 Value) [µg/mL] | MIC90 Range [9] [µg/mL] | MIC90 ([9]; read-out: MIC90 Geometric Mean) [µg/mL] | MIC90 ([9]; read-out: MIC90 Value) [µg/mL] | MIC90 (GM-resistant S. aureus; read-out: MIC90 Geometric Mean) [µg/mL] | MIC90 (GM-resistant S. aureus; read-out: MIC90 Value) [µg/mL] | other results |
| --- | --- | --- | --- | --- | --- | --- | --- | --- | --- | --- | --- | --- | --- | --- | --- | --- | --- | --- | --- | --- | --- |
| 0.006 (≈ 0.0166 µM) | 0.05 (≈ 0.139 µM) | 0.024 (≈ 0.0666 µM) | 0.024 (≈ 0.0666 µM) | 0.1 (≈ 0.277 µM) | 0.39 (≈ 1.08 µM) | 0.78 (≈ 2.16 µM) | 0.78 (≈ 2.16 µM) | CC1CCc2c(N3CCC(O)CC3)c(F)cc3c(=O)c(C(=O)O)cn1c23 (stereo not shown) [NDFX, nadifloxacin] | – | – | – | – | – | – | – | – | – | – | – | – | – |
| – | – | – | – | – | – | – | – | CCn1cc(C(=O)O)c(=O)c2cc(F)c(N3CCNCC3)cc21 [NFLX, norfloxacin] | 48.5 (≈ 152 µM) | 128 (≈ 401 µM) | ≦0.06 μg/ml | ≤ 0.06 | ≤ 0.06 | 194 (≈ 608 µM) | > 128 | 0.5 to 128 | 5.66 (≈ 17.7 µM) | 128 (≈ 401 µM) | 48.5 (≈ 152 µM) | > 128 | MIC90 [2]: 128 µg/mL (≈ 401 µM); MIC90 [3]: 128 µg/mL (≈ 401 µM); MIC90 [4]: > 128 µg/mL; MIC90 [5]: 8 µg/mL (≈ 25.1 µM); MIC90 [6]: 128 µg/mL (≈ 401 µM); MIC90 Range ([7]; OFLX-resistant Enterobacteriaceae, 10 isolates): 16 to 128 µg/mL; MIC90 Range [10]: 2 to 8 µg/mL; MIC90 ([10]; read-out: MIC90 Geometric Mean): 4.29 µg/mL (≈ 13.4 µM); MIC90 ([10]; read-out: MIC90 Value): 8 µg/mL (≈ 25.1 µM) |
| 0.024 (≈ 0.0612 µM) | 0.1 (≈ 0.255 µM) | 0.024 (≈ 0.0612 µM) | 0.05 (≈ 0.127 µM) | 0.2 (≈ 0.51 µM) | 1.56 (≈ 3.98 µM) | 0.78 (≈ 1.99 µM) | 0.39 (≈ 0.994 µM) | C[C@@H]1CN(c2c(F)c(N)c3c(=O)c(C(=O)O)cn(C4CC4)c3c2F)C[C@H](C)N1 [SPFX, sparfloxacin] | – | – | – | – | – | – | – | – | – | – | – | – | – |
| – | – | – | – | – | – | – | – | O=C1CCN(c2c(F)cc3c(=O)c(C(=O)O)cn(C4CC4)c3c2Cl)CCN1 [VI] | 32 (≈ 81.3 µM) | 32 (≈ 81.3 µM) | ≦0.06 μg/ml | ≤ 0.06 | ≤ 0.06 | 1.52 (≈ 3.86 µM) | 4 (≈ 10.2 µM) | 0.5 to 64 | 6.96 (≈ 17.7 µM) | 32 (≈ 81.3 µM) | 0.43 (≈ 1.09 µM) | 4 (≈ 10.2 µM) | MIC90 Range (OFLX-resistant S. aureus): 0.25 to 8 µg/mL; MIC90 Range (GM-resistant S. aureus): ≦0.006-4 μg/ml; MIC90 Range [10]: 0.13 to 0.25 µg/mL; MIC90 ([10]; read-out: MIC90 Geometric Mean): 0.14 µg/mL (≈ 0.356 µM); MIC90 ([10]; read-out: MIC90 Value): 0.13 µg/mL (≈ 0.33 µM) |
| – | – | – | – | – | – | – | – | N[C@H]1CCCCN(c2c(F)cc3c(=O)c(C(=O)O)cn(C4CC4)c3c2Cl)C1 [V] | – | – | – | – | – | – | – | – | – | – | – | – | MIC90 ([11]; ATCC33591, S. aureus (ATCC 33591)): 0.1 µg/mL (≈ 0.254 µM); MIC90 ([11]; ATCC33592, S. aureus (ATCC 33592)): 0.05 µg/mL (≈ 0.127 µM); MIC90 ([11]; ATCC33593, S. aureus (ATCC 33593)): 0.05 µg/mL (≈ 0.127 µM); MIC90 ([11]; S. aureus (No. 395)): 0.1 µg/mL (≈ 0.254 µM); MIC90 ([11]; S. aureus (No. 415)): 0.05 µg/mL (≈ 0.127 µM); MIC90 ([11]; S. aureus (No. 419)): 0.1 µg/mL (≈ 0.254 µM); MIC90 ([11]; S. aureus (No. 420)): 0.05 µg/mL (≈ 0.127 µM); MIC90 ([11]; S. aureus (No. 421)): 0.1 µg/mL (≈ 0.254 µM); MIC90 ([12]; ATCC11632, S. aureus (ATCC 11632)): 0.05 µg/mL (≈ 0.127 µM); MIC90 ([12]; ATCC13301, S. aureus (ATCC 13301)): 0.05 µg/mL (≈ 0.127 µM) |
